Results as given in BindingDB's records for doi:10.1016/j.ejmech.2019.03.019 (Csic - Universidad De Zaragoza, 2019).

Assay: Inhibition of NS5B RNA dependent RNA polymerase in HCV 1b Con1 infected in human Huh5-2 cells assessed as reduction in viral RNA replication measured after 3 days by luciferase reporter gene assay

Structure (SMILES)	EC50 [µM]
COC[C@H]1C[C@@](CC(C)C)(C(=O)O)N(C(=O)c2ccc(C(C)(C)C)c(OC)c2)[C@H]1COC(C)=O	30
CCOC(=O)c1csc([C@H]2[C@@H](COC)C[C@@](CC(C)C)(C(=O)O)N2C(=O)c2ccc(C(C)(C)C)c(OC)c2)n1	60
COC[C@H]1C[C@@](CC(C)C)(C(=O)O)N(C(=O)c2ccc(C(C)(C)C)c(OC)c2)[C@H]1CF	45
COC[C@H]1C[C@@](CC(C)C)(C(=O)O)N(C(=O)c2ccc(C(C)(C)C)c(OC)c2)[C@H]1COC(=O)OC	30
COC[C@H]1C[C@@](CC(C)C)(C(=O)O)N(C(=O)c2ccc(C(C)(C)C)c(OC)c2)[C@@H]1c1nccs1	15
COC[C@H]1C[C@@](CC(C)C)(C(=O)O)N(C(=O)c2ccc(C(C)(C)C)c(OC)c2)[C@H]1[C@H]1COC(C)(C)O1	60
COC[C@H]1C[C@@](CC(C)C)(C(=O)O)N(C(=O)c2ccc(C(C)(C)C)c(OC)c2)[C@H]1c1nccs1	0.1
C=CCOC[C@H]1[C@@H](COC)C[C@@](CC(C)C)(C(=O)O)N1C(=O)c1ccc(C(C)(C)C)c(OC)c1	7.5
CC[C@H]1[C@@H](COC)C[C@@](CC(C)C)(C(=O)O)N1C(=O)c1ccc(C(C)(C)C)c(OC)c1	40
COC[C@H]1C[C@@](CC(C)C)(C(=O)O)N(C(=O)c2ccc(C(C)(C)C)c(OC)c2)[C@H]1CN=[N+]=[N-]	100
COC[C@H]1C[C@@](CC(C)C)(C(=O)O)N(C(=O)c2ccc(C(C)(C)C)c(OC)c2)[C@H]1CNC(C)=O	15
COC[C@H]1C[C@@](CC(C)C)(C(=O)O)N(C(=O)c2ccc(C(C)(C)C)c(OC)c2)[C@H]1C(=O)OC	7
COC[C@H]1C[C@@](CC(C)C)(C(=O)O)N(C(=O)c2ccc(C(C)(C)C)c(OC)c2)[C@H]1[C@H]1COC(=O)O1	2
COC[C@H]1C[C@@](CC(C)C)(C(=O)O)N(C(=O)c2ccc(C(C)(C)C)c(OC)c2)[C@H]1C(N)=O	2
COC[C@H]1C[C@@](CC(C)C)(C(=O)O)N(C(=O)c2ccc(C(C)(C)C)c(OC)c2)[C@H]1COC	0.6
